From PMC3681751, “Identification of a Novel Antimicrobial Peptide from Human Hepatitis B Virus Core Protein Arginine-Rich Domain (ARD)” (PLoS Pathogens, 2013)
Like-named read-outs stand apart in the source and are kept apart here.

How the values were obtained:
[1] = test system: HepG2 cells; test: Cytotoxicity, MTT assay; type: cell-based, human; conditions: 1 hour at 37°C; HBc147-183 at 100 µM, melittin at 3.125 µM; triplicates
Method: (§1) Cytotoxicity was measured for HepG2, Huh7, HEK293, and Vero cells by MTT assay. Cells were seeded at 10^4 cells/well in a 96-well plate and serial dilutions of peptides were added into each well. PBS was used as a negative control and melittin was used as a positive control. After 1 hour of incubation, the medium were replaced by fresh medium containing 10% MTT solution (Promega), and the plate was incubated for 4 hours in 5% CO2 at 37°C. The absorbance at the wavelength of 595 nm was measured by an ELISA reader (Bio-Rad model 680).

[2] = test system: HEK293 cells; test: Cytotoxicity, MTT assay; type: cell-based, human; conditions: 1 hour at 37°C; HBc147-183 at 100 µM, melittin at 3.125 µM; triplicates
Method: as §1

[3] = test system: Huh7 cells; test: Cytotoxicity, MTT assay; type: cell-based, human; conditions: 1 hour at 37°C; HBc147-183 at 100 µM, melittin at 3.125 µM; triplicates
Method: as §1

[4] = test system: K. pneumonia (ATCC 13884); type: cell-based, Klebsiella pneumoniae; conditions: triplicate
[5] = test system: C. albicans (ATCC 10231); type: cell-based, Candida albicans; conditions: fungi, triplicate
Method: (§2) The antimicrobial activities of HBc ARD peptides were tested using a number of bacterial strains from ATCC, including Pseudomonas aeruginosa Migula strain (ATCC 27853, ampicillin-resistant), Pseudomonas aeruginosa Migula strain (ATCC 9027, ampicillin-resistant), Klebsiella pneumoniae strain (ATCC 17593), Escherichia coli strain (ATCC 25922), Staphylococcus aureus subsp. strain (ATCC 25923, methicillin-resistant), Staphylococcus aureus subsp. strain (ATCC 29213, methicillin-resistant), Staphylococcus aureus subsp. strain (ATCC 19636, methicillinresistant), and Candida albicans strain (ATCC 10231).
(§3) All peptides were purchased from Yao-Hong Biotechnology Inc. (Taipei, Taiwan). Vendors provided data of peptide characterizations, including HPLC and Mass (data not shown). Antimicrobial activity was determined as described with some modifications as detailed below. Bacteria were grown overnight in Mueller–Hinton broth (Difco) at 37°C, and during the mid-logarithmic phase, bacteria were diluted to 10^6 CFU (colony formation unit)/ml in phosphate buffer (10 mM sodium phosphate and 50 mM sodium chloride, pH 7.2). Peptides were serially diluted in the same buffer. Fifty microliter (µl) of bacteria was mixed with fifty µl of peptides at varying concentrations followed by incubation at 37°C for 3 hours without shaking. At the end of incubation, bacteria were placed on Mueller-Hinton broth agar plates, and allowed growth at 37°C overnight for measurement of minimal bactericidal concentration (MBC). […] All peptides were tested in triplicate.

[6] = test system: P. aeruginosa (ATCC 9027); type: cell-based, Pseudomonas aeruginosa; conditions: ampicillin-resistant strain, triplicate
Method in brief: (§4)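 Peptides were incubated with buffer-suspended bacteria (10^6 CFU/ml) for 3 hours at 37°C, then cells were plated overnight to find the MBC.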

[7] = test system: P. aeruginosa (ATCC 27853); type: cell-based, Pseudomonas aeruginosa; conditions: ampicillin-resistant strain, triplicate
Method in brief: as §4

[8] = test system: Vero cells; test: Cytotoxicity, MTT assay; type: cell-based, monkey; conditions: 1 hour at 37°C; HBc147-183 at 100 µM, melittin at 3.125 µM; triplicates
Method: as §1

[9] = test system: E. coli (ATCC 25922); type: cell-based, Escherichia coli; conditions: triplicate
Method in brief: as §4

[10] = test system: S. aureus (ATCC 25923); type: cell-based, Staphylococcus aureus; conditions: methicillin-resistant strain, triplicate
Method: as §2, §3

[11] = test system: S. aureus (ATCC 29213); type: cell-based, Staphylococcus aureus; conditions: methicillin-resistant strain, triplicate
Method: as §2, §3

[12] = test system: S. aureus (ATCC 19636); type: cell-based, Staphylococcus aureus; conditions: methicillin-resistant strain, triplicate
Method: as §2, §3

[13] = 3 h at 37°C in 10 mM sodium phosphate, 50 mM NaCl, pH 7.2, 10^6 CFU/ml, ND = not detectable
[14] = 3 h at 37°C in phosphate buffer pH 7.2

CC[C@H](C)[C@H](NC(=O)CN)C(=O)NCC(=O)N[C@@H](C)C(=O)N[C@H](C(=O)N[C@@H](CC(C)C)C(=O)N[C@@H](CCCCN)C(=O)N[C@H](C(=O)N[C@@H](CC(C)C)C(=O)N[C@H](C(=O)N[C@H](C(=O)NCC(=O)N[C@@H](CC(C)C)C(=O)N1CCC[C@H]1C(=O)N[C@@H](C)C(=O)N[C@@H](CC(C)C)C(=O)N[C@H](C(=O)N[C@@H](CO)C(=O)N[C@@H](Cc1c[nH]c2ccccc12)C(=O)N[C@H](C(=O)N[C@@H](CCCCN)C(=O)N[C@@H](CCCNC(=N)N)C(=O)N[C@@H](CCCCN)C(=O)N[C@@H](CCCNC(=N)N)C(=O)N[C@@H](CCC(N)=O)C(=O)N[C@@H](CCC(N)=O)C(N)=O)[C@@H](C)CC)[C@@H](C)CC)[C@@H](C)O)[C@@H](C)O)C(C)C)C(C)C [Melittin, reference compound]
Cell viability / cytotoxicity (MTT) [1]: significantly decreased | Cell viability / cytotoxicity (MTT) [2]: significantly decreased | Cell viability / cytotoxicity (MTT) [3]: significantly decreased | Antimicrobial activity, MBC [4, 13]: 2 µM | Antimicrobial activity, MBC [4, 14]: 5.7 µg/mL | Antimicrobial activity, MBC ([5]; 3 h at 37°C in 10 mM sodium phosphate, 50 mM NaCl, pH 7.2, ND = not detectable): 4 µM | Antimicrobial activity, MBC [5, 14]: 11.4 µg/mL | Antimicrobial activity, MBC [6, 13]: 2 µM | Antimicrobial activity, MBC [6, 14]: 5.7 µg/mL | Antimicrobial activity, MBC [7, 13]: 2 µM | Antimicrobial activity, MBC [7, 14]: 5.7 µg/mL | Cell viability / cytotoxicity (MTT) [8]: significantly decreased | Antimicrobial activity, MBC [9, 13]: 2 µM | Antimicrobial activity, MBC [9, 14]: 5.7 µg/mL | Antimicrobial activity, MBC [10, 13]: 2 µM | Antimicrobial activity, MBC [10, 14]: 5.7 µg/mL | Antimicrobial activity, MBC [11, 13]: 1 µM | Antimicrobial activity, MBC [11, 14]: 2.85 µg/mL | Antimicrobial activity, MBC [12, 13]: 1 µM | Antimicrobial activity, MBC [12, 14]: 2.85 µg/mL
